The supplement of paper PMC11208160

Experiment: recombinant barcode read abundance after kanamycin selection (control-corrected) (log10(CPM+1)); higher = more efficient recombination; sequences stand for … in AGTGCAGAGAAAATCGGCCAGTTTTCTCTGCCTGCAGTCCGCATGCCGT…AGATTTATGCAGCGGACTGCCTTTCTCCCAAAGTGATAAACCGGACAGTATCATGGACCGGTTTTCCCGGTAATCCGTATTTGCAAGGTTGGTTTCACT; site = the 11-nt target
Summary of the method: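 Recombination efficiency draws on barcodes counted at recombinant junctions in a pooled E. coli screen of targets paired with IS621 bridge RNA target-binding loops. The counts were converted to counts per million, averaged and corrected against the chloramphenicol/ampicillin LB agar control, then reported as log10(CPM+1). Selection plates held chloramphenicol/ampicillin/kanamycin with 0.1 mM IPTG, with two replicates per condition.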
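Further: IS621 recombinase and bridge RNA in Escherichia coli cells.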

Compared with “GACTTGTCTTGGGTTCTAACCTGTTGCCT (site GACTTGACTAG)”, “GCAGGGTCTTGGGTTCTAACCTGTTGCTT (site GCCGGGTCTAA)” is higher in “recombinant barcode read abundance (log10)” value: 0.0686 for the first, 0.658 for the second.

“CGCTGGACTTGGGTTCTAACCTGTTGCCT (site CGCTGGACTAG)” and “AGGTCCTCTTGGGTTCTAACCTGTTGCCT (site AGGTCCTCTAC)” are within 0.2 log units of each other in “recombinant barcode read abundance (log10)” value: 0.158 for the first, 0.233 for the second.

First: CTAGACTCTTGGGTTCTAACCTGTTGCTC (site CTAGACTCTAA)
Second: CTATGGACTTGGGTTCTAACCTGTTGCAA (site CTATGGACTTT)
The “recombinant barcode read abundance (log10)” value of the first is lower: 0.0434 for the first, 1.39 for the second.

“AGACCACCTTGGGTTCTAACCTGTTGCCT (site ACACCACCTAG)” and “AAGGCGCCTTGGGTTCTAACCTGTTGCCT (site ACGGCGCCTAG)” are within 0.2 log units of each other in “recombinant barcode read abundance (log10)” value: 0.234 for the first, 0.11 for the second.

Compared with “TGGAGCACTTGGGTTCTAACCTGTTGCCT (site TGGAGCACTAG)”, “AGCTTAGCTTGGGTTCTAACCTGTTGCCA (site AGCTTAGCTTG)” is lower in “recombinant barcode read abundance (log10)” value: 1.11 for the first, 0.387 for the second.

Going from “CCACTGCCTTGGGTTCTAACCTGTTGCCT (site CCACTGCCTAG)” to “GAGTAGCCTTGGGTTCTAACCTGTTGCGG (site GAGTGGCCTCC)”, the “recombinant barcode read abundance (log10)” value falls from 0.862 to 0.3.

“GACCAGCCTTGGGTTCTAACCTGTTGCCT (site GACCAGCCTAG)” and “GAGCGTACTTGGGTTCTAACCTGTTGCAT (site GAGCGTACTAT)” are within 0.2 log units of each other in “recombinant barcode read abundance (log10)” value: 0.98 for the first, 1.09 for the second.

Compared with “TAGGGTCCTTGGGTTCTAACCTGTTGCGG (site TAGGGTCCTCC)”, “CTATGTGCTTGGGTTCTAACCTGTTGCAT (site CTATGTGCTAT)” is lower in “recombinant barcode read abundance (log10)” value: 2.88 for the first, 0.109 for the second.

First: GCAGCGACTTGGGTTCTAACCTGTTGCCT (site GCGGCGACTAG)
Second: AGAACTACTTGGGTTCTAACCTGTTGCCA (site CTCGTGTCTAT)
The “recombinant barcode read abundance (log10)” value of the first is higher: 0.277 for the first, 0.0514 for the second.

First: CTGTCTCCTTGGGTTCTAACCTGTTGCCT (site GTGTCTCCTAG)
Second: ATAGGGACTTGGGTTCTAACCTGTTGCCT (site ATAGGGACTAG)
The “recombinant barcode read abundance (log10)” value of the first is lower: 0.0715 for the first, 2.31 for the second.

Going from “ACTAGGACTTGGGTTCTAACCTGTTGCGA (site ACTAGGACTCC)” to “GCCAACCCTTGGGTTCTAACCTGTTGCCT (site GCCAACCCTAC)”, the “recombinant barcode read abundance (log10)” value falls from 1.43 to 0.0192.

“GCCAAGCCTTGGGTTCTAACCTGTTGCTG (site TCCAACCCTCA)” and “GGACGCGCTTGGGTTCTAACCTGTTGCGG (site GGGCCCGCTCC)” are within 0.2 log units of each other in “recombinant barcode read abundance (log10)” value: 0.0182 for the first, 0.075 for the second.

Going from “AGGAGTCCTTGGGTTCTAACCTGTTGCTG (site AGGAATCCTAA)” to “TAAACAGCTTGGGTTCTAACCTGTTGCCT (site TACACAGCTAG)”, the “recombinant barcode read abundance (log10)” value falls from 1.57 to 0.00929.

Going from “CGTTCACCTTGGGTTCTAACCTGTTGCAT (site CGTTCACCTAT)” to “CGGGGCCCTTGGGTTCTAACCTGTTGCTT (site GACTAGTCTCT)”, the “recombinant barcode read abundance (log10)” value falls from 0.499 to 0.167.

Going from “TCTCAGTCTTGGGTTCTAACCTGTTGCGG (site TCTCAGTCTCC)” to “TGCCTAGCTTGGGTTCTAACCTGTTGCCT (site TGTCTAGCTAG)”, the “recombinant barcode read abundance (log10)” value falls from 1.14 to 0.0825.

“GACTGCCCTTGGGTTCTAACCTGTTGCCT (site GCCTGCCCTAG)” and “CTGTCGCCTTGGGTTCTAACCTGTTGCCT (site CTCTCGCCTAG)” are within 0.2 log units of each other in “recombinant barcode read abundance (log10)” value: 0.164 for the first, 0.0526 for the second.

“TTGGTAGCTTGGGTTCTAACCTGTTGCCT (site TTGGCAGCTAG)” and “ACGACTTCTTGGGTTCTAACCTGTTGCCT (site ACGACTACTAG)” are within 0.2 log units of each other in “recombinant barcode read abundance (log10)” value: 0.148 for the first, 0.0265 for the second.

Compared with “ATGGTGCCTTGGGTTCTAACCTGTTGCCT (site ATGGTGACTAG)”, “TTGCCTTCTTGGGTTCTAACCTGTTGCCT (site TGGCCTTCTAG)” is higher in “recombinant barcode read abundance (log10)” value: 0.098 for the first, 0.606 for the second.

First: ATGTCGTCTTGGGTTCTAACCTGTTGCCT (site ACGTCGTCTAG)
Second: GAAGCTCCTTGGGTTCTAACCTGTTGCGT (site GAGGCTCCTAC)
The “recombinant barcode read abundance (log10)” value of the first is lower: 0.296 for the first, 0.581 for the second.

“CCAAGCACTTGGGTTCTAACCTGTTGCCT (site CCAAGCCCTAG)” and “ACACGCCCTTGGGTTCTAACCTGTTGCAC (site AGACTCCCTGT)” are within 0.2 log units of each other in “recombinant barcode read abundance (log10)” value: 0.138 for the first, 0.0104 for the second.

Going from “GGGACCTCTTGGGTTCTAACCTGTTGCGG (site GGGACCTCTAC)” to “CTAAAGACTTGGGTTCTAACCTGTTGCAC (site CCAAAGACTAT)”, the “recombinant barcode read abundance (log10)” value falls from 1.25 to 0.0891.

Going from “TGTGCGGCTTGGGTTCTAACCTGTTGCCT (site AGTGCGGCTAG)” to “CTACAGACTTGGGTTCTAACCTGTTGCGA (site CTACAGACTCC)”, the “recombinant barcode read abundance (log10)” value rises from 0.0331 to 1.04.

Compared with “GACTCTACTTGGGTTCTAACCTGTTGCTT (site GAGTCTACTAA)”, “ATATACGCTTGGGTTCTAACCTGTTGCCT (site ATATACGCTAG)” is higher in “recombinant barcode read abundance (log10)” value: 0.068 for the first, 1.84 for the second.

Going from “CTGTGCCCTTGGGTTCTAACCTGTTGCCT (site CTGGGCCCTAG)” to “GGAGCTTCTTGGGTTCTAACCTGTTGCCT (site GGAGCTTCTAG)”, the “recombinant barcode read abundance (log10)” value rises from 0.0673 to 1.33.

Going from “GAGAAGCCTTGGGTTCTAACCTGTTGCCT (site CAGAAGCCTAG)” to “CTAGTGACTTGGGTTCTAACCTGTTGCGA (site CTAGTGACTGC)”, the “recombinant barcode read abundance (log10)” value falls from 0.409 to 0.0599.

First: GGTGGGTCTTGGGTTCTAACCTGTTGCAT (site GGTGGGTCTAA)
Second: ACCAGCCCTTGGGTTCTAACCTGTTGCTG (site TGATATTCTAG)
The “recombinant barcode read abundance (log10)” value of the first is higher: 0.345 for the first, 0.0743 for the second.

Going from “TGGACGCCTTGGGTTCTAACCTGTTGCCT (site TGGACGCCTAG)” to “GACCGTCCTTGGGTTCTAACCTGTTGCTT (site GACCGTCCTAA)”, the “recombinant barcode read abundance (log10)” value rises from 0.252 to 1.1.

“GGGATGTCTTGGGTTCTAACCTGTTGCCT (site GAGATGTCTAG)” and “ACGAGTCCTTGGGTTCTAACCTGTTGCTT (site ACGAGTCCTAA)” are within 0.2 log units of each other in “recombinant barcode read abundance (log10)” value: 0.444 for the first, 0.606 for the second.

“GGACCATCTTGGGTTCTAACCTGTTGCCT (site GGACAATCTAG)” and “GGTAGGACTTGGGTTCTAACCTGTTGCCT (site GGTAGGACTAG)” are within 0.2 log units of each other in “recombinant barcode read abundance (log10)” value: 0.29 for the first, 0.278 for the second.

Going from “CGGGGTCCTTGGGTTCTAACCTGTTGCTA (site CGGAGTCCTTA)” to “GACTTTCCTTGGGTTCTAACCTGTTGCAT (site GACTTCCCTAT)”, the “recombinant barcode read abundance (log10)” value falls from 1.68 to 0.272.

Compared with “GAGGGCCCTTGGGTTCTAACCTGTTGCGG (site GAGGGCCCTCT)”, “GGTAAAGCTTGGGTTCTAACCTGTTGCCT (site GGTAAAGCTAG)” is lower in “recombinant barcode read abundance (log10)” value: 2.8 for the first, 0.71 for the second.

“CCAAATCCTTGGGTTCTAACCTGTTGCAT (site CCAAATCCTAT)” and “CTACTAGCTTGGGTTCTAACCTGTTGCAT (site CTACTAGCTTT)” are within 0.2 log units of each other in “recombinant barcode read abundance (log10)” value: 0.189 for the first, 0.139 for the second.

“CCTGTCACTTGGGTTCTAACCTGTTGCCA (site TACCGAGCTCA)” and “GTAGTATCTTGGGTTCTAACCTGTTGCCT (site GTAGTAACTAG)” are within 0.2 log units of each other in “recombinant barcode read abundance (log10)” value: 0.11 for the first, 0.0297 for the second.

Compared with “AGAGAATCTTGGGTTCTAACCTGTTGCCT (site AGTGAATCTAG)”, “CGACAGGCTTGGGTTCTAACCTGTTGCCT (site CGACAGGCTAG)” is higher in “recombinant barcode read abundance (log10)” value: 0.196 for the first, 0.439 for the second.

“CCTGTCACTTGGGTTCTAACCTGTTGCCA (site CCTGTCACTTG)” and “TCATTAGCTTGGGTTCTAACCTGTTGCCG (site TCATTAGCTCG)” are within 0.2 log units of each other in “recombinant barcode read abundance (log10)” value: 0.474 for the first, 0.315 for the second.

Going from “TTGGCAGCTTGGGTTCTAACCTGTTGCCT (site TTGGCAGCTAG)” to “TGGAGCACTTGGGTTCTAACCTGTTGCCT (site TGGACCACTAG)”, the “recombinant barcode read abundance (log10)” value falls from 2.08 to 0.107.

Compared with “TGCGCTACTTGGGTTCTAACCTGTTGCCT (site TGCGCGACTAG)”, “AGGTCCTCTTGGGTTCTAACCTGTTGCCT (site AGGTCCTCTAG)” is higher in “recombinant barcode read abundance (log10)” value: 0.141 for the first, 2.06 for the second.

“TAGCAGTCTTGGGTTCTAACCTGTTGCGC (site CGCGCCACTAG)” and “ATCTTACCTTGGGTTCTAACCTGTTGCCG (site GTCTTCCCTCG)” are within 0.2 log units of each other in “recombinant barcode read abundance (log10)” value: 0.251 for the first, 0.11 for the second.

First: TCCGAGACTTGGGTTCTAACCTGTTGCCC (site TCCGAGACTTG)
Second: GAGCTGCCTTGGGTTCTAACCTGTTGCTT (site GAGCTGCCTAA)
The “recombinant barcode read abundance (log10)” value of the first is lower: 0.0317 for the first, 1.3 for the second.

“CTTCGTCCTTGGGTTCTAACCTGTTGCGT (site CTTCGTCCTAA)” and “TGAGGGGCTTGGGTTCTAACCTGTTGCCT (site TGAGCGGCTAG)” are within 0.2 log units of each other in “recombinant barcode read abundance (log10)” value: 0.102 for the first, 0.242 for the second.

First: ATAGCCACTTGGGTTCTAACCTGTTGCCT (site ATAGCCACTAG)
Second: CTCCGTCCTTGGGTTCTAACCTGTTGCGT (site CTCCGTCCTAC)
The “recombinant barcode read abundance (log10)” value of the first is lower: 1.02 for the first, 2.54 for the second.

Going from “GGCGCCTCTTGGGTTCTAACCTGTTGCGC (site GGCGCCTCTGC)” to “GTCTCATCTTGGGTTCTAACCTGTTGCCT (site GTCTTATCTAG)”, the “recombinant barcode read abundance (log10)” value falls from 0.777 to 0.0289.

Compared with “CGGATGGCTTGGGTTCTAACCTGTTGCCT (site CGGATGGCTAG)”, “AGTGCGTCTTGGGTTCTAACCTGTTGCCT (site TGTGCGTCTAG)” is lower in “recombinant barcode read abundance (log10)” value: 0.64 for the first, 0.0164 for the second.
